Measurements as given in patent publication US5519024A, “Quinolonecarboxylic acid derivatives and their use” (Takeda Chemical Industries, Ltd., priority 1993, dated 1996).
Like-named read-outs stand apart in the source and are kept apart here.

Target: T1, GPIIb/IIIa (Homo sapiens, UniProt P05106+P08514)
T1 construct: Purification of GPIIb/IIIa from HEL cells; endogenous in cells; host or cells: HEL cells (HEL 92.1.7, ATCC TIB180); endogenous complex solubilized with Triton X-100 and purified in house
T1 sequence (P08514 32-887 limits assumed): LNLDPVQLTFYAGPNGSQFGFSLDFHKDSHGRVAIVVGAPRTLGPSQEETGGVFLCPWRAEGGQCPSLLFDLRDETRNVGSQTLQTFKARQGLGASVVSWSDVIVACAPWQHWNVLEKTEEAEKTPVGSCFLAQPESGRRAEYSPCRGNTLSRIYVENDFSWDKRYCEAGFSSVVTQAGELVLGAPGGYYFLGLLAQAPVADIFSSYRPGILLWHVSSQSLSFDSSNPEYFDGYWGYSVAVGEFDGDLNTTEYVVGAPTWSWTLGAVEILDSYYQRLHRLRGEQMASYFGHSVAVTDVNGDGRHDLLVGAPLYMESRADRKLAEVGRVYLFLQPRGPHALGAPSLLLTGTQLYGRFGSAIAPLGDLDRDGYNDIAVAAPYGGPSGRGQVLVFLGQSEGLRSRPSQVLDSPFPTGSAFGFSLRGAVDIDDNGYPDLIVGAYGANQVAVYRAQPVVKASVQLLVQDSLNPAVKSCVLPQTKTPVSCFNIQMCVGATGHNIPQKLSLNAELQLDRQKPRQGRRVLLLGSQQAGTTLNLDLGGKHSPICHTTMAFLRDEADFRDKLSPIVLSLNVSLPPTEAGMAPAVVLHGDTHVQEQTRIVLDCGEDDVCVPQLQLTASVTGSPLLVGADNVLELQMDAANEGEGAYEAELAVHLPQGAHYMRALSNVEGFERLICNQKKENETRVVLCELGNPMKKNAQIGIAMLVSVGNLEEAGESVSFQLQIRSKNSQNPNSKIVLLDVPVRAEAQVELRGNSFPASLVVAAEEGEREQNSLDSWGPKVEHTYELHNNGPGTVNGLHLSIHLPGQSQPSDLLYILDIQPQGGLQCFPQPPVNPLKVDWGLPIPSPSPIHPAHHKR
T1 sequence (P08514 891-1039 limits assumed): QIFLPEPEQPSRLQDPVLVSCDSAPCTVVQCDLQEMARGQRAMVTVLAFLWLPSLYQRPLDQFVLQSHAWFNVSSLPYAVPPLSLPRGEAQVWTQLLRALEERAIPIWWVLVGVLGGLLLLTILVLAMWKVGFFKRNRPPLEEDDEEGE
T1 sequence (P05106 27-788): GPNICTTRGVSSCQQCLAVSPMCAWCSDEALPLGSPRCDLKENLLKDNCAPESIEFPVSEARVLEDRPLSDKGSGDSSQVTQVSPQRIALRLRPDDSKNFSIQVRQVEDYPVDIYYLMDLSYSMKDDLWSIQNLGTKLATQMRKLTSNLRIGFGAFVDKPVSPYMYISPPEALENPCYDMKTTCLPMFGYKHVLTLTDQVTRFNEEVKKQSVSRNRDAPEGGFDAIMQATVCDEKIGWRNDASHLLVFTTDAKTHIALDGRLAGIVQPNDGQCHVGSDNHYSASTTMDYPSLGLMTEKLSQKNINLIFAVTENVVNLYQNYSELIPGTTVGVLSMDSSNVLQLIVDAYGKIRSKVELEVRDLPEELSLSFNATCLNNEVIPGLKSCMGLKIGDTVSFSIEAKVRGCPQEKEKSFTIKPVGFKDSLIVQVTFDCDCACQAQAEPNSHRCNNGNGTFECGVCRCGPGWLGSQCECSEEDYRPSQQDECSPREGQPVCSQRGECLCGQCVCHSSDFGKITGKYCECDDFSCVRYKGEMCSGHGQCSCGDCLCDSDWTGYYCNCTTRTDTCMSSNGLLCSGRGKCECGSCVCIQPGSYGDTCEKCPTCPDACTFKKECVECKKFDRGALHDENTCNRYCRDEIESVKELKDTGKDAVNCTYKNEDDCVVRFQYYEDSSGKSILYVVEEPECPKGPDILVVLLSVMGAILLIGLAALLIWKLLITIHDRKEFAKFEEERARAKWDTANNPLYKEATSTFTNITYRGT
Assay: Inhibitory activity against binding of GPIIb/IIIa and fibrinogen
Details: for inhibition at 10 µM / inhibition at 1 µM: read-out: GPIIb/IIIa Fibrinogen Binding Inhibitory Activity
Experimental: Test Example 1: Inhibitory activity against binding of GPIIb/IIIa and fibrinogen
(1) Cultivation of human erythroleukemia-derived cell line (hereinafter referred to as HEL cells)
HEL cells (HEl92.1.7; ATCC No. TIB180) were purchased from ATCC (Rockville, Md., U.S.A.). The medium was RPMI medium (GIBCO Laboratories, Grand Island, N..Y, U.S.A.) containing 40 mM N-2-hydroxyethylpiperazine-N'-2-ethanesulfonic acid (hereinafter referred to as HEPES) (pH 7.0), 0.2% NaHCO3, 100 μg/ml kanamycin and 10% FCS. The cells were cultured in the presence of 5% CO2 at 37° C., with the medium replaced with a fresh medium to obtain a 4- to 5-fold dilution at intervals of 3 to 4 days.
(2) Purification of GPIIb/IIIa from HEL cells
GPIIb/IIIa was purified by a modification of the method of L. A. Fitzgerald et al. [J. Biol. Chem., 262, 3936 (1987)] as follows: All purification was conducted at room temperature, unless otherwise stated. At 7 days of cultivation, cells were collected from the HEL cell culture broth (cell suspension) by centrifugation (1,000 ×g, 10 minutes, 4° C.). After washing with 20 mM Tris-HCl (pH 7.5) containing 1 mM EDTA and 150 mM NaCl, the cells were suspended in a solubilizing buffer (20 mM Tris-HCl, 150 mM NaCl, 1% Triton X-100, 1 mM MgCl2, 1 mM CaCl2, 0.1 mM (p-amidinophenyl)methanesulfonyl fluoride (hereinafter referred to as APMSF), 10 nM leupeptin, 0.02% NaN3, pH 7.4), followed by gentle stirring at 4° C. for 30 minutes, to solubilize the GPIIb/IIIa. The suspension was centrifuged (100,000 ×g, 1 hour) at 4° C., and the cell debris removed, to yield a cell extract. The cell extract was passed through a Heparin-Sepharose CL-6B column (Pharmacia LKB) and a DEAE-Toyopearl 650M column (Tosoh), both previously equilibrated with a column buffer (20 mM Tris-HCl, 150 mM NaCl, 0.1% Triton X-100, 1 mM MgCl2, 1 mM CaCl2, 0.1 mM APMSF, 1 nM leupeptin, 0.05% NaN3, pH 7.4). The effluent was applied to a ConA-Sepharose column (Pharmacia LKB), previously equilibrated with the same column buffer as above, to adsorb the GPIIb/IIIa, followed by elution with the same column buffer but containing 0.5M methyl α-D-mannopyranoside. The eluted fraction was concentrated at 4° C. using an ultrafiltration apparatus (Amicon Corporation the fraction's molecular weight of 10,000), after which it was subjected to gel filtration through a Sephacryl S-300 column (Pharmacia LKB), previously equilibrated with the same column buffer, to yield a purified standard sample.
(3) Biotinization of human fibrinogen
Conducted by the method of I. F. Charo [I. F. Charo et al., J. Biol. Chem., 266, 1415 (1991)].
Human fibrinogen (Kabi Vitrum AB) was dissolved in PBS to 5 mg/ml and then dialyzed at 4° C. against 0.1M carbonate buffer (pH 8.2) containing 0.1M NaCl. After dialysis, insoluble substances were removed by centrifugation (100,000 ×g, 30 minutes), and the dialyzate was diluted to 1 mg/ml with the same buffer. To this dilution, sulfo-N-hydroxysuccinimidebiotin (Pierce Chemical Co.) was added to a final concentration of 0.2 mg/ml, followed by gentle mixing at room temperature for 30 minutes, to biotinize the fibrinogen. After completion of the reaction, the mixture was dialyzed against 0.05M Tris-HCl buffer (pH 7.4) containing 0.1M NaCl and 0.05% NaN3.
(4) Determination of inhibitory activity against fibrinogen binding
Conducted by a modification of the method of I. F. Charo [I. F. Charo et al., J. Biol. Chem., 266, 1415 (1991)] as follows: The purified GPIIb/IIIa was diluted to 1 μg/ml with buffer A (20 mM Tris-HCl, 150 mM NaCl, 1 mM CaCl2, 0.02% NaN3, pH 7.4). A 100 μl aliquot of this dilution was dispensed to a 96-well microplate (Maxisorp, produced by Nunc), and the plate kept standing at 4° C., to adsorb the GPIIb/IIIa to the microplate. Next, 150 μl of buffer B (35 mg/ml BSA, 50 mM Tris-HCl, 100 mM NaCl, 2 mM CaCl2, 0.02% NaN3, pH 7.4) was added, followed by 2 hours of blocking at 30° C. […]

inhibition at 10 µM (Table 2, 10^-5 M) [%]	inhibition at 1 µM (Table 2, 10^-6 M) [%]	Compound	other results
100	100	O=C(O)c1cn(Cc2cscn2)c2c(F)c(N3CCN(c4ccncc4)CC3)c(F)cc2c1=O [Compound 73, 6,8-Difluoro-7-[4-(4-pyridyl)piperazine-1-yl]-1-(4-thiazolylmethyl)-1,4-dihydro-4-oxoquinoline-3-carboxylic acid]	
58.5	26.1	O=C(O)c1cn(Cc2ccc(Cl)cc2)c2c(F)c(N3CCNCC3)c(F)cc2c1=O [Compound 74, 1-(4-Chlorobenzyl)-6,8-difluoro-7-(1-piperazinyl)-1,4-dihydro-4-oxoquinoline-3-carboxylic acid]	
100	100	O=C(O)c1cn(Cc2ccncc2)c2c(F)c(N3CCNCC3)c(F)cc2c1=O [Compound 75, 6,8-Difluoro-7-(1-piperazinyl)-1-(4-pyridylmethyl)-1,4-dihydro-4-oxoquinoline-3-carboxylic acid]	
100	83.1	COc1ccccc1Cn1cc(C(=O)O)c(=O)c2cc(F)c(N3CCNCC3)c(F)c21 [Compound 76, 6,8-Difluoro-1-(2-methoxybenzyl)-7-(1-piperazinyl)-1,4-dihydro-4-oxoquinoline-3-carboxylic acid]	
94.5	100	COc1ccc(Cn2cc(C(=O)O)c(=O)c3ccc(N4CCC(C5CCNCC5)CC4)cc32)cc1 [Compound 77, 1-(4-Methoxybenzyl)-7-[4-(4-piperidinyl)piperidin-1-yl]-1,4-dihydro-4-oxoquinoline-3-carboxylic acid]	
98.1	100	O=C(O)c1cn(Cc2ccc(F)cc2)c2c(F)c(N3CCC(C4CCNCC4)CC3)c(F)cc2c1=O [Compound 78, 6,8-Difluoro-1-(4-fluorobenzyl)-7-[4-(4-piperidinyl)piperidin-1-yl]-1,4-dihydro-4-oxoquinoline-3-carboxylic acid]	
100	100	O=C(O)c1cn(Cc2ccc(C(F)(F)F)cc2)c2c(F)c(N3CCC(C4CCNCC4)CC3)c(F)cc2c1=O [Compound 79, 6,8-Difluoro-7-[4-(4-piperidinyl)piperidin-1-yl]-1-(4-trifiuoromethylbenzyl)-1,4-dihydro-4-oxoquinoline-3-carboxylic acid]	
100	100	COc1cccc(Cn2cc(C(=O)O)c(=O)c3cc(F)c(N4CCC(C5CCNCC5)CC4)c(F)c32)c1 [Compound 80, 6,8-Difluoro-1-(3-methoxybenzyl)-7-[4-(4-piperidinyl)piperidin-1-yl]-1,4-dihydro-4-oxoquinoline-3-carboxylic acid]	
100	100	COc1ccc(Cn2cc(C(=O)O)c(=O)c3ccc(N4CCNCC4)cc32)cc1 [Compound 81, 1-(4-Methoxybenzyl)-7-(4-piperazin-1-yl)-1,4-dihydro-4-oxoquinoline-3-carboxylic acid]	
		O=C(O)c1cn(C2CC2)c2cc(N3CCNCC3)c(F)cc2c1=O [Cyprofloxacin, reference compound]	inhibition at 1 µM: 47.6%; inhibition at 10 µM: 85.5%
		CCn1cc(C(=O)O)c(=O)c2cc(F)c(N3CCNCC3)nc21 [Enoxacin, reference compound]	inhibition at 10 µM (Table 1, 1 × 10^-5 M): 62%; inhibition at 1 µM (Table 1, 1 × 10^-6 M): 24.3%
		CCn1cc(C(=O)O)c(=O)c2cc(F)c(N3CCNCC3)cc21 [Norfloxacin, reference compound]	inhibition at 10 µM (Table 1, 1 × 10^-5 M): 77.4%; inhibition at 1 µM (Table 1, 1 × 10^-6 M): 38.7%
		CC1COc2c(N3CCN(C)CC3)c(F)cc3c(=O)c(C(=O)O)cn1c23 (stereo not drawn) [Ofloxacin, reference compound]	inhibition at 10 µM (Table 1, 1 × 10^-5 M): 42.4%; inhibition at 1 µM (Table 1, 1 × 10^-6 M): 4%
		NC1CCN(c2nc3c(cc2F)c(=O)c(C(=O)O)cn3-c2ccc(F)cc2F)C1 (stereo not drawn) [Tosufloxacin, reference compound]	inhibition at 10 µM (Table 1, 1 × 10^-5 M): 37.6%; inhibition at 1 µM (Table 1, 1 × 10^-6 M): 30.7%
		Romechloxaxin [reference compound]	GPIIb/IIIa Fibrinogen Binding Inhibitory Activity (Table 1, 1 × 10^-5 M): 59.6%; GPIIb/IIIa Fibrinogen Binding Inhibitory Activity (Table 1, 1 × 10^-6 M): 22.8%
